PubChem BioAssay (NCI)
Values joined by “and” are separate entries in the source; they are usually repeats but may differ in a detail not shown here. Identical values can stand only once.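 Cells were grown in 96-well plates and exposed to each compound for 48 hours at five concentrations; endpoints were interpolated linearly between bracketing concentrations, or set to the highest concentration if not reached. GI50 marks 50% less growth. Definition used: TGI = concentration required for complete inhibition of growth.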

Legend:
Experiment in all cases: NCI anticancer screen, dose series, 48 h
[1] = system: OVCAR-4 ovarian
[2] = system: HL-60(TB) leukemia
[3] = system: A549 NSCLC
[4] = system: CCRF-CEM leukemia
[5] = system: TK-10 renal
[6] = system: T-47D breast
[7] = system: SK-MEL-2 melanoma
[8] = system: SF-295 CNS
[9] = system: M14 melanoma
[10] = system: SNB-75 CNS

| Structure (SMILES) | TGI [1] | TGI [2] | TGI [3] [µM] | TGI [4] | TGI [5] | TGI [6] | TGI [7] | TGI [8] [µM] | TGI [9] [µM] | TGI [10] | GI50 [1] | GI50 [2] | GI50 [3] [µM] | GI50 [4] | GI50 [5] | GI50 [6] | GI50 [7] | GI50 [8] | GI50 [9] | GI50 [10] [µM] |
| --- | --- | --- | --- | --- | --- | --- | --- | --- | --- | --- | --- | --- | --- | --- | --- | --- | --- | --- | --- | --- |
| O=C(NO)NCCCl | > 100 µM | > 100 µM | > 100 | > 100 µM | > 100 µM | > 100 µM | > 100 µM | > 100 | > 100 | > 100 µM |  |  |  |  |  |  |  |  |  |  |
| C=C1C(=O)O[C@H]2C[C@@H]1[C@@H](O)[C@H](O)[C@@H](C)CCCC(C)=CCC[C@@]2(C)O | 83.9 µM | > 100 µM | > 100 | > 100 µM | 30.4 µM | 57.1 µM | 41.2 µM | > 100 | 29.8 | > 100 µM |  |  |  |  |  |  |  |  |  |  |
| Cc1nc2sc(C(=O)c3ccc(Cl)cc3)c(N)c2c(-c2ccccc2Cl)c1C(=O)Nc1ccccc1 | 41 µM | > 86.5 µM | 31.4 | 19.9 µM | 39.3 µM | 19 µM | 32.8 µM | 47.9 | 25.8 | 29.7 µM |  |  |  |  |  |  |  |  |  |  |
| C=C(Cl)C(Cl)(CCl)CCC(Br)C(C)(C)Br (stereo not drawn) | > 10 µM | > 10 µM | > 10 | > 10 µM | > 10 µM | > 10 µM | > 10 µM | > 10 | > 10 | > 10 µM |  |  |  |  |  |  |  |  |  |  |
| CCN1CCC(CNC(=O)c2ccc(N)cc2)N1CC (stereo not drawn) | > 100 µM | > 100 µM | > 100 | > 100 µM | > 100 µM | > 100 µM | > 100 µM | > 100 | > 100 | > 100 µM |  |  |  |  |  |  |  |  |  |  |
| CCOC(=O)/C=C(\C(=O)OCC)n1cc(C)c(=O)n(Cc2cnnn2COCCOC(C)=O)c1=O | 32 µM | 12.7 µM | 47.1 | 5.57 µM | 10.8 µM | 28.9 µM | 41.7 µM | 69.3 | 57.5 | 39.9 µM |  |  |  |  |  |  |  |  |  |  |
| COc1ccccc1C1(c2c(OC)c(=O)c2=O)SCCCS1 | > 100 µM | > 100 µM | > 100 | > 100 µM | > 100 µM | > 100 µM | > 100 µM | > 100 | > 100 | > 100 µM |  |  |  |  |  |  |  |  |  |  |
| CCCCCCCCCCCCCC[n+]1ccc(C)cc1 | 2.71 µM | 1.19 µM | 2.94 | 5.11 µM | 2.11 µM | 10.6 µM | 2.83 µM | 17.8 | 1.25 | 2.37 µM | 0.523 µM | 0.338 µM | 1.53 | 0.818 µM | 0.627 µM | 0.831 µM | 1.33 µM | 3.25 µM | 0.345 µM | 0.806 |
| O=C1C(c2c(O)[nH]c3ccc(Br)cc23)=Nc2ccc(Br)cc21 | > 100 µM | > 100 µM | > 100 | > 100 µM | > 100 µM | > 100 µM | > 100 µM | > 100 | > 100 | 41.3 µM |  |  |  |  |  |  |  |  |  |  |
| O=C1CSC(c2ccc(Cl)cc2Cl)N1c1ccc(Oc2ccc(Cl)cc2)c(Cl)c1 (stereo not drawn) | 78.6 µM | 48.3 µM | > 100 | 61.3 µM | > 100 µM | 90.1 µM | 72.7 µM | 50.9 | > 100 | 60 µM |  |  |  |  |  |  |  |  |  |  |
| COc1cc2c(/C=C3/C(=O)Nc4ccc(Cl)cc43)c(Cl)[nH]c2cc1C | 11.4 µM | 13.6 µM | 16.2 | 0.933 µM | 8.48 µM | 26.9 µM | 29.8 µM | 10.5 | 13.7 | 5.71 µM |  |  |  |  |  |  |  |  |  |  |
| O=C(SCc1cccc2ccccc12)c1ccc(Cl)cc1 | > 100 µM | > 100 µM | > 100 | > 100 µM | > 100 µM | > 100 µM | > 100 µM | > 100 | > 100 | > 100 µM |  |  |  |  |  |  |  |  |  |  |
| CCCCOP(C)(=O)C(NC(=O)OCC)(C(F)(F)F)C(F)(F)F (stereo not drawn) | > 100 µM | > 100 µM | > 100 | > 100 µM | > 100 µM | > 100 µM | > 100 µM | > 100 | > 100 | > 100 µM |  |  |  |  |  |  |  |  |  |  |
| O=C(Cn1c(C(=O)c2ccccc2)nc2ccccc21)c1ccccc1 | > 100 µM | > 100 µM | > 100 | > 100 µM | > 100 µM | > 100 µM | > 100 µM | > 100 | > 100 | > 100 µM |  |  |  |  |  |  |  |  |  |  |
| CCOC(=O)C1(C#N)CC1 | > 100 µM | > 100 µM | > 100 | > 100 µM | > 100 µM | > 100 µM | > 100 µM | > 100 | > 100 | > 100 µM |  |  |  |  |  |  |  |  |  |  |
| Cc1cccc(CC(Cc2ccc(C)cc2C(=O)O)C(=O)O)c1 (stereo not drawn) | > 100 µM | > 100 µM | > 100 | > 100 µM | > 100 µM | > 100 µM | > 100 µM | > 100 | > 100 | > 100 µM |  |  |  |  |  |  |  |  |  |  |
| O=C1/C(=C/c2ccc(O)cc2)COc2ccc(O)c(O)c21 | 65.9 µM | 7.41 µM | > 100 | 8.53 µM | > 100 µM | > 100 µM | 38.6 µM | > 100 | 20.1 | > 100 µM | 2.85 µM | 1.93 µM | 3.6 | 0.652 µM | 3.12 µM | 3.31 µM | 6.21 µM | 5.36 µM | 3.43 µM | 1.78 |
| CC(=O)OC1[C@H](OC(C)=O)C2=C(C)[C@@H](OC(C)=O)C[C@@]2(C(C)(C)O)[C@@H](OC(C)=O)[C@H]2[C@@]1(C)[C@@H](OC(C)=O)CC(OC(C)=O)[C@]21CO1 (stereo partly drawn) | > 100 µM | > 100 µM | > 100 | > 100 µM | > 100 µM | > 100 µM | > 100 µM | > 100 | > 100 | > 100 µM |  |  |  |  |  |  |  |  |  |  |
| Cc1ccc2nc(-c3ccc(C(C)(C)C)cc3)oc(=O)c2c1 | 90.3 µM | 40 µM | > 100 | 46.9 µM | > 100 µM | 83.4 µM | 56.7 µM | 49 | 74 | 47.7 µM |  |  |  |  |  |  |  |  |  |  |
| COC1C(N(C)C)=C(c2ccccc2)C(=O)N2CCc3ccccc3C12 (stereo not drawn) | > 100 µM | > 100 µM | > 100 | > 100 µM | > 100 µM | > 100 µM | > 100 µM | > 100 | > 100 | > 100 µM |  |  |  |  |  |  |  |  |  |  |
| C(=Nc1ccc(-c2nc3ccccc3s2)cc1)c1ccc[nH]1 | 89.7 µM | 72.6 µM | > 100 | 57.4 µM | 64.2 µM | 47.3 µM | 32 µM | 27.9 | 34.2 | 55.7 µM |  |  |  |  |  |  |  |  |  |  |
| COC(=O)Nc1nc2ccc(S(=O)(=O)N3CCOCC3)cc2[nH]1 | > 100 µM | > 100 µM | > 100 | > 100 µM | > 100 µM | > 100 µM | > 100 µM | > 100 | > 100 | > 100 µM |  |  |  |  |  |  |  |  |  |  |
| CC1=CP(=O)(c2c(C(C)C)cc(C(C)C)cc2C(C)C)CCC1Cl (stereo not drawn) | 48.5 µM | 42.8 µM | 32.7 | 65.4 µM | 30.7 µM | 31.9 µM | 31.4 µM | 27.4 | 29.8 | 28.6 µM |  |  |  |  |  |  |  |  |  |  |
| CC1(C)COC2=C(C1)C(=O)c1ccccc1C2=O | 2.9 µM | 2.71 µM | 4.76 | 5.77 µM | 3.19 µM | 2.44 µM | 3.88 µM | 3 | 2.96 | 3.04 µM |  |  |  |  |  |  |  |  |  |  |
| CC(=O)OCC1OC(n2c(S)c(C#N)c(-c3ccccc3)c(C#N)c2=O)C(OC(C)=O)C(OC(C)=O)C1OC(C)=O (stereo not drawn) | > 100 µM and 83.3 µM | > 100 µM and 35.5 µM | > 100 | > 100 µM and 96.7 µM | > 100 µM and 86.5 µM | > 100 µM and 54.4 µM | > 100 µM and 31.8 µM | > 100 | > 100 | 56.5 µM and 72.4 µM | > 100 µM and 30.6 µM | > 100 µM and 17.4 µM |  | > 100 µM and 43.1 µM | 90.7 µM and 24.9 µM | > 100 µM and 18.6 µM | > 61.6 µM and 13.6 µM | 29.4 µM and > 100 µM | > 100 µM and 36.5 µM |  |
| O=C(O)[C@H](CCC[C@H]1C(=O)O[C@H](c2ccccc2)[C@H](c2ccccc2)N1C(=O)OCc1ccccc1)N[C@@H](c1ccccc1)[C@H](O)c1ccccc1 | 75.9 µM | 38.8 µM | > 100 | 46.4 µM | > 100 µM | > 100 µM | 40.8 µM | 81 | > 100 | 55.1 µM |  |  |  |  |  |  |  |  |  |  |
| COC1(CC[C@@H](C)COC2OC(CO)C(O)C(O)C2O)O[C@H]2C[C@H]3[C@@H]4CC=C5C[C@@H](OC6OC(CO)C(O)C(OC7OC(CO)C(O)C(O)C7O)C6OC6OC(C)C(O)C(O)C6O)CC[C@]5(C)[C@H]4CC[C@]3(C)[C@H]2[C@@H]1C (stereo partly drawn) | 28.4 µM | 26.8 µM | 9.36 | > 100 µM | 43.8 µM | 25.9 µM | 29.2 µM | 11.3 | 5.41 | 11.2 µM |  |  |  |  |  |  |  |  |  |  |
